Test results: ChEMBL document CHEMBL4257223, “Histone demethylase inhibitors” (2016)

What was measured:
[1] = molecular target: T1, Lysine-specific demethylase 4C (Homo sapiens, UniProt Q9H3R0); test: Inhibition of recombinant human N-terminal GST-tagged JMJD2C (2 to 372 residues) expressed in baculovirus infected sf9 cells using H3K9me3-biotin peptide as substrate after 30 mins in presence of alpha-ketoglutaric acid by LANCE TR-FRET assay
T1 sequence (Q9H3R0 whole entry): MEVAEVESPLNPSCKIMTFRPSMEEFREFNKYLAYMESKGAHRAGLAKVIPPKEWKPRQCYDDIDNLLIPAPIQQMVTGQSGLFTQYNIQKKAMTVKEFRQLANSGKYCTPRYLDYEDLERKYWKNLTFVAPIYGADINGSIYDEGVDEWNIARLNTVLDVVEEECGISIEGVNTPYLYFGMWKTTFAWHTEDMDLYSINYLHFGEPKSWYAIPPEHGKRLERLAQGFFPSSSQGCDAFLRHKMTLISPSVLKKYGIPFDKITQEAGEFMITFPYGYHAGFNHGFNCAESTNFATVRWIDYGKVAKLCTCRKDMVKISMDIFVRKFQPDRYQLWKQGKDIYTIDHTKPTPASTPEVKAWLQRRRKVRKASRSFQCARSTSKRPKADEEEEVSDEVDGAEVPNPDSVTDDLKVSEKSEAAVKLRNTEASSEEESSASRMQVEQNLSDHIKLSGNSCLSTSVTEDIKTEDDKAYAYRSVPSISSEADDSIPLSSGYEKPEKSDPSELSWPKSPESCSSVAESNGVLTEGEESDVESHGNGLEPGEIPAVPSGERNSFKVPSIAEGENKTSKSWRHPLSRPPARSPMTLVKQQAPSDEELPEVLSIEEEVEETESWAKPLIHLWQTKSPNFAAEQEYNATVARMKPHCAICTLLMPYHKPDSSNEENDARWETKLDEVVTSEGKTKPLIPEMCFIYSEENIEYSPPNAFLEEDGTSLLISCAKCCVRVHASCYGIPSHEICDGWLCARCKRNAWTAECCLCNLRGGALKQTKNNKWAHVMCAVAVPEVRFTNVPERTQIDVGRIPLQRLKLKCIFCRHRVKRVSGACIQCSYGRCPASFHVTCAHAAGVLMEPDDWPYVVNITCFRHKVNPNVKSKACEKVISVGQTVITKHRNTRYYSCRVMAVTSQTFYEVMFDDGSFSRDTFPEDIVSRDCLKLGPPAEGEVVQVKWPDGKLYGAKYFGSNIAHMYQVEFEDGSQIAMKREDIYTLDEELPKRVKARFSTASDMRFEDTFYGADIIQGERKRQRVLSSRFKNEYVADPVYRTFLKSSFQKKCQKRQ

[2] = molecular target: Lysine-specific demethylase 5B (Homo sapiens, UniProt Q9UGL1); test: Inhibition of recombinant human N-terminal His-FLAG tagged JARID1B (2 to 751 residues) expressed in baculovirus infected sf9 cells using H3K4me3-biotin peptide as substrate after 30 mins in presence of alpha-ketoglutaric acid by LANCE TR-FRET assay
[3] = molecular target: T2, Lysine-specific demethylase 2B (Homo sapiens, UniProt Q8NHM5); test: Inhibition of recombinant human C-terminal FLAG-tagged FBXL10 (1 to 650 residues) expressed in baculovirus infected sf9 cells using H3K36me2-biotin peptide as substrate after 30 mins in presence of alpha-ketoglutaric acid by AlphaScreen assay
T2 sequence (Q8NHM5 whole entry): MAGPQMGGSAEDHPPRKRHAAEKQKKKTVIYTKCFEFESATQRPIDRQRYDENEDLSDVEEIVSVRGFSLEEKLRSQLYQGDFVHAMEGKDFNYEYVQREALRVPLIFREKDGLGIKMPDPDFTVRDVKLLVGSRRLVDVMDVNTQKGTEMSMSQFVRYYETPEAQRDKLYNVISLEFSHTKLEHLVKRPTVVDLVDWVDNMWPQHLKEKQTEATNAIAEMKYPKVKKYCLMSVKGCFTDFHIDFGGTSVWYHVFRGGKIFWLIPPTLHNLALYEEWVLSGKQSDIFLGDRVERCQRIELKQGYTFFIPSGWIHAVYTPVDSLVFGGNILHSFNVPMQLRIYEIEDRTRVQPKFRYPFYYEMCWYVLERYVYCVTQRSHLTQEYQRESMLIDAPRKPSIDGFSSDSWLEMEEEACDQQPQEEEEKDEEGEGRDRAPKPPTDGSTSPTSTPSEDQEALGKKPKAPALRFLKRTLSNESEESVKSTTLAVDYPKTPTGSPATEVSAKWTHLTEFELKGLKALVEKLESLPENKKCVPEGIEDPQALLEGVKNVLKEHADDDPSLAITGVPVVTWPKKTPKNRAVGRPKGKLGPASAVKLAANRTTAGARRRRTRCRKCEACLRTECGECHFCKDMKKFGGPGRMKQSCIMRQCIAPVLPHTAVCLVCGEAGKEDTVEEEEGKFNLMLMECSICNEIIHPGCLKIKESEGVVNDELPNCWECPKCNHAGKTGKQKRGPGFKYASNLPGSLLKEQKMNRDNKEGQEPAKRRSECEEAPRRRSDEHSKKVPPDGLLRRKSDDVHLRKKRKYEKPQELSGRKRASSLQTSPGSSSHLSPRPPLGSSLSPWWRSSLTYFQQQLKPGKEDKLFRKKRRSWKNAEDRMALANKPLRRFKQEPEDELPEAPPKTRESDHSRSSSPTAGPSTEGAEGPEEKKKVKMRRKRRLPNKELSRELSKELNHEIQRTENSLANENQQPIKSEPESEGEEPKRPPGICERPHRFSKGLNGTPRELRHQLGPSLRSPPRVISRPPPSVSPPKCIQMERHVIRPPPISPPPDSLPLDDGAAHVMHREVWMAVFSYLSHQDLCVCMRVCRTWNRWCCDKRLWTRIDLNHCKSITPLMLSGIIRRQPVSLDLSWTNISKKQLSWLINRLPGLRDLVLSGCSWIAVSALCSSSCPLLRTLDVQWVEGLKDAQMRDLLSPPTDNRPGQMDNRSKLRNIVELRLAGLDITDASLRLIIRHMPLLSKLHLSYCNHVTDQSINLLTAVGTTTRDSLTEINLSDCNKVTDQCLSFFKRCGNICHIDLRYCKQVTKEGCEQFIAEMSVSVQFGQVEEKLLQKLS

[4] = molecular target: Lysine-specific demethylase 5A/5B (Homo sapiens, UniProt P29375+Q9UGL1); test: Inhibition of KDM5A/KDM5B in human ZR-75-1 cells assessed as increase in H3K4me3 level after 72 hrs by fluorometric immunoblot analysis; assay type: cell-based

Chain of Lysine-specific demethylase 5B (Q9UGL1 whole entry, the tested form may be a part): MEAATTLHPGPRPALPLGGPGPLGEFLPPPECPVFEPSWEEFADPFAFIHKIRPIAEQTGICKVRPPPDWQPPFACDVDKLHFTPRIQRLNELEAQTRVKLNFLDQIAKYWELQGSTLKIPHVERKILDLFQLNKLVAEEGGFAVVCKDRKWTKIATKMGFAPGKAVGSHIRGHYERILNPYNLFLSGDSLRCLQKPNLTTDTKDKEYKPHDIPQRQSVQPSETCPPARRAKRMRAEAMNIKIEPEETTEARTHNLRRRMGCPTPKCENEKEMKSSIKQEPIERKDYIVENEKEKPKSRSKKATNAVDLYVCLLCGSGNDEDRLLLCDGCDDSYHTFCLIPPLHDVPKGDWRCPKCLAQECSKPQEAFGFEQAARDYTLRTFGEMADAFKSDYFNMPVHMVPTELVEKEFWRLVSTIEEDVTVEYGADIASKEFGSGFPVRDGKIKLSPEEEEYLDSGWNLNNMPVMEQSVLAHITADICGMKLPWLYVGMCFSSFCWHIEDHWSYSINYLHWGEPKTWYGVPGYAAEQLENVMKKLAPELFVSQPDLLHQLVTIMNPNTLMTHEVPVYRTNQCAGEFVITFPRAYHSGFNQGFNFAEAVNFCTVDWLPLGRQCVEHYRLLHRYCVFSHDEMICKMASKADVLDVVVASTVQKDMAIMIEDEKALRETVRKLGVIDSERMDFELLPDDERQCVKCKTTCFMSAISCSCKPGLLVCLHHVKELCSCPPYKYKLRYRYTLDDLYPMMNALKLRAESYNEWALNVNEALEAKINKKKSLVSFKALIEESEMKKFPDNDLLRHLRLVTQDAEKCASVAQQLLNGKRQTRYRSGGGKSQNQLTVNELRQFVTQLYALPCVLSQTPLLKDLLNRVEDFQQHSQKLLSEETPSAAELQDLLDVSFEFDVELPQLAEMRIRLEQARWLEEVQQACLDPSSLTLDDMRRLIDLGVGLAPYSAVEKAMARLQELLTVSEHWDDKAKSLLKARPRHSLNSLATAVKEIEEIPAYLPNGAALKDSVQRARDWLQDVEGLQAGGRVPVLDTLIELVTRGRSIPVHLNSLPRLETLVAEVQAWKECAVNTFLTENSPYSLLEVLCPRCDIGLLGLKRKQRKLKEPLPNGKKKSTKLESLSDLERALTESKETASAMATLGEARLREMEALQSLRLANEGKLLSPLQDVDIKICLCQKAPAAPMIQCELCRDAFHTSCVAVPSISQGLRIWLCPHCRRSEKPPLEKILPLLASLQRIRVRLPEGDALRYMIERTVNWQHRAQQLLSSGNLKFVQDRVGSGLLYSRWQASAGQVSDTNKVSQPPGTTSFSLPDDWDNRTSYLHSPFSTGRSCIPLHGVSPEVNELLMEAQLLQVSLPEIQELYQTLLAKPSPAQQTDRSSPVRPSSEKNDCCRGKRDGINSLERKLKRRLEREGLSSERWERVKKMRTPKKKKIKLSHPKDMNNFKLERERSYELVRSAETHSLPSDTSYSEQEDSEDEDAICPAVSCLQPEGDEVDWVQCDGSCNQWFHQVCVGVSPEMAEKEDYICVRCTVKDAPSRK

## COc1ccc(-c2c(-c3cc(C(=O)O)ccn3)ncn2C)cc1
[1]
  IC50: 1000 to 10000 nM
[2]
  IC50: 100 to 1000 nM
[3]
  IC50: 100 to 1000 nM
[4]
  IC50: 1000 to 10000 nM
